43 molecules from patent publication US11661583B2, “Drug discovery platform for Duchenne cardiomyopathy” (University of Washington, priority 2015, dated 2023) can be followed below.

Data set [1] deals with dystrophin deficient cardiomyocytes. Kind of data set: High-throughput hypotonic stress cell viability (intracellular ATP) screen. The settings on record: for Average of % viability: 384-well, 18 hours compound incubation, then 30 minutes at 12.5% normal osmolarity, CELLTITER-GLO, vs average of DMSO control wells, tested at 10^-8 to 10^-5 M, concentration not given; for Z score / Effect on viability in hypotonic stress screen (in words): primary screen; for Z score: data points ranked by Z score; for Effect on viability in hypotonic stress screen (in words): dose-response, FIG. 8. (ATP-based viability assays read luminescence as a measure of living cells.)

The test system is the same in data set [2].
Data set [3] relates to dystrophin locus. The data set is described as follows: SURVEYOR assay of guide RNA targeting efficiency in HEK293T cells. The format is cell-based, human. The conditions noted are these: FIG. 9A. An excerpt: (THERMO […], Waltham, Mass.) using primer set […] ID NO:3) and […] ID NO:4).

Where a name gives a salt, the structure may show the parent alone. Read-outs that look alike come from different tables or passages of the source.

As to `C=CC1=C(C(=O)O)N2C(=O)[C@@H](NC(=O)/C(=N\O)c3csc(N)n3)[C@H]2SC1`, in data set [1], the “Average of % viability” value was determined as 185.70 ± 45.76% and the Z score is recorded as 4.16.
For `CC(=O)c1ccc2c(c1)N(CCCN(C)C)c1ccccc1S2` [ACEPROMAZINE MALEATE], in that order: 239.1 ± 38.37% and 6.57.
As for `Nc1nc2c(ncn2COCCO)c(=O)[nH]1` [ACYCLOVIR], in data set [1], the “Average of % viability” value is 258.33 ± 14.16% and the Z score came out at 7.44.
The corresponding values for `NC(=O)c1ccc([N+](=O)[O-])cc1Cl` [AKLOMIDE] are 276.60 ± 12.37% and 8.26.
For `CN(C)c1nc(N(C)C)nc(N(C)C)n1` [ALTRETAMINE], in that order: 188.22 ± 2.87% and 4.27.
Take `Nc1ccc(C(=O)NCC(=O)O)cc1` [AMINOHIPPURIC ACID]: in data set [1], the “Average of % viability” value stood at 207.49 ± 7.09% and the Z score is given as 5.14.
Turning to `CCCCc1oc2ccccc2c1C(=O)c1cc(I)c(OCCN(CC)CC)c(I)c1` [AMIODARONE HYDROCHLORIDE], the Z score in data set [1] was determined as 3.37.
Consider `O=C1O[C@H]([C@@H](O)CO)C(O)=C1O` [ASCORBIC ACID], for which, in data set [1], the “Average of % viability” value is recorded as 181.48 ± 23.68%.
In data set [1], `CC(C)NCC(O)COc1ccc(CC(N)=O)cc1` (centres unmarked) [ATENOLOL] gave a Z score of 3.51.
With `CC(C)COCC(CN(Cc1ccccc1)c1ccccc1)N1CCCC1` (centres unmarked) [BEPRIDIL HYDROCHLORIDE], in data set [1], the “Average of % viability” value is listed as 178.65 ± 3.48% and the Z score amounted to 3.84.
For `O=C(O)CCCC[C@@H]1SC[C@@H]2NC(=O)N[C@@H]21` [BIOTIN], in that order: 315.95 ± 51.89% and 10.04.
For `C[C@@]12C(=O)OC(=O)[C@]1(C)[C@H]1CC[C@@H]2O1` [CANTHARIDIN], in that order: 239.59 ± 14.65% and 6.59.
With `CN1CCN(C(c2ccccc2)c2ccc(Cl)cc2)CC1` (centres unmarked) [CHLORCYCLIZINE HYDROCHLORIDE], in data set [1], the “Average of % viability” value is 238.84 ± 35.23% and the Z score is 6.56.
For `O=C(O)c1cc(-c2ccccc2)nc2ccccc12` [CINCHOPHEN], in data set [1], the “Average of % viability” value came out at 168.44 ± 44.63% and the Z score was 3.38.
The corresponding values for `COC(=O)[C@H](c1ccccc1Cl)N1CCc2sccc2C1` [CLOPIDOGREL SULFATE] are 194.84 ± 50.3% and 4.57.
For `CC(=O)OCC(=O)[C@@]1(O)CC[C@H]2[C@@H]3CCC4=CC(=O)CC[C@]4(C)[C@H]3C(=O)C[C@@]21C` [CORTISONE ACETATE], in that order: 205.92 ± 12.32% and 5.07.
As for `CN1C(=O)CC[C@H]1c1cccnc1` [COTININE], in data set [1], the “Average of % viability” value came to 188.79 ± 56.0% and the Z score is 4.30.
For `CC=CC(=O)N(CC)c1ccccc1C` [CROTAMITON], in that order: 178.25 ± 27.22% and 3.82.
As to `Cn1c(=O)c2c(ncn2C)n(C)c1=O` [Caffeine], in data set [1], the “Effect on viability in hypotonic stress screen (in words)” value is recorded as “demonstrated the opposite effect”.
`CN(C)/N=N/c1[nH]cnc1C(N)=O` [DACARBAZINE]: in data set [1], the “Average of % viability” value is recorded as 177.63 ± 45.35% and the Z score is on record as 3.79.
In the case of `COc1cccc2c1C(=O)c1c(O)c3c(c(O)c1C2=O)C[C@@](O)(C(=O)CO)C[C@@H]3O[C@H]1C[C@H](N)[C@H](O)[C@H](C)O1` [DOXORUBICIN], in data set [1], the “Average of % viability” value was found to be 207.98 ± 34.29% and the Z score came to 5.16.
Regarding `C[C@]12CC[C@@H]3c4ccc(OS(=O)(=O)O)cc4CC[C@H]3[C@@H]1CCC2=O` [ESTROPIPATE], in data set [1], the “Average of % viability” value is reported as 208.65 ± 30.77% and the Z score is reported as 5.19.
The corresponding values for `CC(=O)O[C@H]1CC[C@@]2(C)[C@H](CC[C@@H]3[C@@H]2CC[C@]2(C)[C@@H](C4=CC(=O)OC4)[C@@H](OC(C)=O)C[C@]32O)C1` [GITOXIGENIN DIACETATE] are 177.20 ± 1.17% and 3.77.
`O=C(CCCN1CCC(O)(c2ccc(Cl)cc2)CC1)c1ccc(F)cc1` [HALOPERIDOL]: in data set [1], the “Average of % viability” value is recorded as 197.30 ± 19.03% and the Z score is given as 4.68.
As to `NC(=O)NO` [HYDROXYUREA], in data set [1], the “Average of % viability” value turned out to be 187.65 ± 49.61% and the Z score is 4.25.
Turning to `CN1CCc2c(c3ccccc3n2Cc2ccccc2)C1.CN1CCc2c(c3ccccc3n2Cc2ccccc2)C1.O=S(=O)(O)c1cccc2c(S(=O)(=O)O)cccc12` [MEBHYDROLIN NAPHTHALENE SULFONATE], in data set [1], the Z score came out at 3.58.
As to `COc1ccc2cc([C@H](C)CO)ccc2c1` [NAPROXOL], in data set [1], the “Average of % viability” value was 168.76 ± 2.61% and the Z score is 3.39.
The corresponding values for `O=C(O)C(O)C(O)C(=O)O.OCc1cccnc1` (centres unmarked) [NICOTINYL ALCOHOL TARTRATE] are 262.12 ± 57.89% and 7.61.
For `COCCOC(=O)C1=C(C)NC(C)=C(C(=O)OC(C)C)C1c1cccc([N+](=O)[O-])c1` (centres unmarked) [NIMODIPINE], in that order: 292.38 ± 56.17% and 8.97.
Consider `CCOC(=O)C1=C(C)NC(C)=C(C(=O)OC)C1c1cccc([N+](=O)[O-])c1` (centres unmarked) [NITRENDIPINE], for which, in data set [1], the “Average of % viability” value is given as 275.48 ± 52.16% and the Z score was found to be 8.21.
For the molecule `CCCCC1C(=O)N(c2ccccc2)N(c2ccc(O)cc2)C1=O` (centres unmarked) [OXYPHENBUTAZONE], the “Average of % viability” value in data set [2] was 176.96 ± 42.53%. The Z score in data set [1] was 3.76.
With `COc1cc([C@@H]2c3cc4c(cc3[C@H](O)[C@H]3COC(=O)[C@H]23)OCO4)cc(OC)c1OC` [PODOFILOX], in data set [1], the “Average of % viability” value is reported as 168.46 ± 28.98% and the Z score was determined as 3.38.
With `CCCN(CCC)C(=O)C(CCC(=O)O)NC(=O)c1ccccc1` (centres unmarked) [PROGLUMIDE], in data set [1], the “Average of % viability” value is on record as 175.69 ± 50.35% and the Z score is 3.71.
For `COc1ccc(C[C@H](N)C(=O)N[C@H]2[C@@H](O)[C@H](n3cnc4c(N(C)C)ncnc43)O[C@@H]2CO)cc1` [PUROMYCIN HYDROCHLORIDE], in that order: 187.84 ± 39.68% and 4.25.
For `CCCCCCCCCCCCCCCC(=O)OC/C=C(C)/C=C/C=C(C)/C=C/C1=C(C)CCCC1(C)C` [RETINYL PALMITATE], in data set [1], the “Average of % viability” value worked out at 236.79 ± 46.63% and the Z score was 6.46.
With `CO[C@H]1C[C@H](O[C@@H]2/C(C)=C/C[C@@H]3C[C@@H](C[C@]4(CC[C@H](C)[C@@H](C5CCCCC5)O4)O3)OC(=O)[C@@H]3C=C(C)/C(=N/O)[C@H]4OC/C(=C\C=C\[C@@H]2C)[C@]43O)O[C@@H](C)[C@@H]1O` [SELAMECTIN], in data set [1], the “Average of % viability” value is recorded as 172.91 ± 25.29% and the Z score amounted to 3.58.
For `COc1ncnc(NS(=O)(=O)c2ccc(N)cc2)c1OC` [SULFADOXINE], in that order: 195.32 ± 23.52% and 4.59.
Consider `CC(C)(C)c1ccc(C(O)CCCN2CCC(C(O)(c3ccccc3)c3ccccc3)CC2)cc1` (centres unmarked) [TERFENADINE], for which, in data set [1], the “Average of % viability” value amounted to 211.28 ± 22.46% and the Z score is given as 5.31.
For `CCN(CC)CCOc1ccc2c(c1)C(=O)c1cc(OCCN(CC)CC)ccc1-2` [TILORONE], in that order: 172.53 ± 15.79% and 3.56.
In the case of `C[C@@H]1CC[C@@]2(OC1)O[C@H]1[C@@H](O)[C@H]3[C@@H]4CC[C@H]5C[C@@H](O[C@@H]6O[C@H](CO)[C@H](O[C@@H]7O[C@H](CO)[C@@H](O)[C@H](O[C@@H]8OC[C@@H](O)[C@H](O)[C@H]8O)[C@H]7O[C@@H]7O[C@H](CO)[C@H](O)[C@H](O[C@@H]8O[C@H](CO)[C@@H](O)[C@H](O)[C@H]8O)[C@H]7O)[C@H](O)[C@H]6O)[C@H](O)C[C@]5(C)[C@H]4CC[C@]3(C)[C@H]1[C@@H]2C` [digitonin], in data set [1], the Z score entry was “lowest Z score” and the “Effect on viability in hypotonic stress screen (in words)” value was “dose-responsive toxicity”.
As for ANTIMYCIN A, in data set [1], the “Average of % viability” value is 180.04 ± 1.89% and the Z score is recorded as 3.90.
For BENZALKONIUM CHLORIDE, in that order: 194.64 ± 23.10% and 4.56.
In data set [3], “gRNA 4: guide sequence GCTTTGGTGGGAAGAAGTAGAGG (SEQ ID NO: 8) targeting first muscle exon of human dystrophin (listed as DNA, chemistry not fully specified)” displayed a cutting efficiency of 44.3%.
